Measured values from patent publication US6362369B1, “Phthalic acid diamide derivatives fluorine-containing aniline compounds as starting material, agricultural and horticultural insecticides, and a method for application of the insecticides” (Nihon Nohyaku Co., Ltd., priority 1997, dated 2002).

Tests used:
Assay type in all cases: in vivo
[1] = system: common cutworm (Spodoptera Litura); experiment: Insecticidal effect on common cutworm (Test Example 2); details: common cutworm second-instar larvae; cabbage leaf immersed, 500 ppm; eight days after inoculation; 25° C.
Method in brief: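 Second-instar larvae placed in 9 cm Petri dishes with air-dried treated material, held at 25 °C. Dead and live insects counted 8 days after inoculation; mortality calculated and scored against a set criterion. Triplicate groups of 10 insects.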

[2] = system: rice leafroller (Cnaphalocrocis medinalis); experiment: Insecticidal effect on rice leafroller (Test Example 3); details: rice leafroller third-instar larvae; rice lamina immersed, 500 ppm; four days after inoculation; 25° C., humidity 70%
Method in brief: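 Groups of 10 third-instar larvae, in triplicate, are placed on air-dried lamina resting on wet filter paper. Incubation runs four days at 25° C with 70% humidity before survivors and dead are tallied.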

[3] = system: diamondback moth (Plutella xylostella); experiment: Insecticidal effect on diamondback moth (Test Example 1); details: diamondback moth; mortality judged by criterion of Test Example 1
Method in brief: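 Read-out was mortality from hatched-insect counts taken 6 days after the egg-bearing cabbage seedling was immersed, graded by set criteria. Seedlings were air-dried and kept at 25° C after treatment. Groups of 10 insects, in triplicate.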

Compound | Insecticidal effect, Test Example 2 [1] | Insecticidal effect, Test Example 3 [2] | Insecticidal effect, Test Example 1 [3]
CCCNC(=O)c1c(I)cccc1C(=O)Nc1ccc(OC(F)(F)C(F)F)cc1C [compound 1058] | A (100) | A (100) | A (100)
Cc1cc(OC(F)(F)C(F)F)ccc1NC(=O)c1ccccc1C(=O)NC(C)(C)C [compound 1060] | A (100) | A (100) | A (100)
Cc1cc(OC(F)(F)C(F)F)ccc1NC(=O)c1cccc(Cl)c1C(=O)NC(C)(C)C [compound 1061] | A (100) | A (100) | A (100)
Cc1cc(OC(F)(F)C(F)F)ccc1NC(=O)c1cccc(I)c1C(=O)NC(C)(C)C [compound 1062] | A (100) | A (100) | A (100)
CC(C)(C)NC(=O)c1c(Cl)cccc1C(=O)Nc1ccc2c(c1)OC(F)(F)C(F)(F)O2 [compound 1066] | C (89-80) | A (100) | A (100)
CC(C)(C)NC(=O)c1c(I)cccc1C(=O)Nc1ccc2c(c1)OC(F)(F)C(F)(F)O2 [compound 1067] | A (100) | A (100) | A (100)
Cc1cc(C(F)(F)C(F)(F)F)ccc1NC(=O)c1cccc(I)c1C(=O)N(C)C [compound 1068] | A (100) | A (100) | A (100)
CCCN(C)C(=O)c1c(I)cccc1C(=O)Nc1ccc(C(F)(F)C(F)(F)F)cc1C [compound 1069] | A (100) | A (100) | A (100)
Cc1cc(C(F)(F)C(F)(F)F)ccc1NC(=O)c1cccc(I)c1C(=O)N1CCOCC1 [compound 1070] | A (100) | A (100) | A (100)
Cc1cc(C(F)(F)C(F)(F)F)ccc1NC(=O)c1ccccc1C(=O)N(C(C)C)C(C)C [compound 1071] | C (89-80) | A (100) | A (100)
CCNC(=O)c1c(I)cccc1C(=O)Nc1ccc(C(F)(C(F)(F)F)C(F)(F)F)cc1C [compound 1073] | A (100) | A (100) | A (100)
CCNC(=O)c1cccc(I)c1C(=O)Nc1ccc(C(F)(C(F)(F)F)C(F)(F)F)cc1C [compound 1074] | A (100) | A (100) | A (100)
CCCNC(=O)c1c(I)cccc1C(=O)Nc1ccc(C(F)(C(F)(F)F)C(F)(F)F)cc1C [compound 1075] | A (100) | A (100) | A (100)
CC(C)NC(=O)c1c(Cl)cccc1C(=O)Nc1ccc(S(=O)(=O)C(F)(F)F)cc1 [compound 1078] | A (100) | A (100) | A (100)
CC(C)NC(=O)c1c(I)cccc1C(=O)Nc1ccc(S(=O)(=O)C(F)(F)F)cc1 [compound 1079] | A (100) | A (100) | A (100)
CC(C)(C)NC(=O)c1c(I)cccc1C(=O)Nc1ccc(S(=O)(=O)C(F)(F)F)cc1 [compound 1080] | A (100) | A (100) | A (100)
Cc1cc(C(F)(F)C(F)(F)F)ccc1NC(=O)c1cccc(I)c1C(=O)N(C(C)C)C(C)C [compound 1081] | A (100) | A (100) | A (100)
Cc1cc(OC(F)(F)C(F)(F)c2ccccc2)ccc1NC(=O)c1cccc(Cl)c1C(=O)NC(C)C [compound 1087] | A (100) | A (100) | A (100)
CC(C)NC(=O)c1c(C(=O)Nc2ccc3c(c2)OC(F)(F)O3)cccc1[N+](=O)[O-] [compound 1100] | C (89-80) | A (100) | A (100)
CC(C)NC(=O)c1c(Cl)cccc1C(=O)Nc1ccc2c(c1)OC(F)(F)O2 [compound 1101] | C (89-80) | A (100) | A (100)

Compound | Insecticidal effect, Test Example 2 [1] | Insecticidal effect, Test Example 3 [2] | Insecticidal effect, Test Example 1 [3]
CC(C)NC(=O)c1c(I)cccc1C(=O)Nc1ccc2c(c1)OC(F)(F)O2 [compound 1102] | A (100) | A (100) | A (100)
CC(C)(C)NC(=O)c1c(Cl)cccc1C(=O)Nc1ccc2c(c1)OC(F)(F)O2 [compound 1104] | A (100) | A (100) | A (100)
CC(C)(C)NC(=O)c1c(I)cccc1C(=O)Nc1ccc2c(c1)OC(F)(F)O2 [compound 1105] | A (100) | A (100) | A (100)
CC(C)NC(=O)c1c(Cl)cccc1C(=O)Nc1ccc(SC(F)(F)Br)cc1 [compound 1110] | C (89-80) | A (100) | A (100)
CC(C)NC(=O)c1c(I)cccc1C(=O)Nc1ccc(SC(F)(F)Br)cc1 [compound 1112] | A (100) | A (100) | A (100)
CC(C)NC(=O)c1c(I)cccc1C(=O)Nc1ccc([S+]([O-])C(F)(F)Br)cc1 (stereo not drawn) [compound 1113] | A (100) | A (100) | A (100)
CC(C)(C)NC(=O)c1c(Cl)cccc1C(=O)Nc1ccc(SC(F)(F)Br)cc1 [compound 1114] | A (100) | A (100) | A (100)
CC(C)(C)NC(=O)c1c(I)cccc1C(=O)Nc1ccc(SC(F)(F)Br)cc1 [compound 1115] | A (100) | A (100) | A (100)
Cc1cc(C(F)(F)C(F)(F)F)ccc1NC(=O)c1cccc(I)c1C(=O)N1CCCCCC1 [compound 1117] | A (100) | A (100) | A (100)
CCN(CC)C(=O)c1c(C(=O)Nc2ccc(OC(F)(F)F)cc2C)cccc1[N+](=O)[O-] [compound 1118] | A (100) | A (100) | A (100)
CCN(CC)C(=O)c1c(C(=O)Nc2ccc(C(F)(C(F)(F)F)C(F)(F)F)cc2C)cccc1[N+](=O)[O-] [compound 1119] | A (100) | A (100) | A (100)
Cc1cc(C(F)(F)C(F)(F)F)ccc1N(C)C(=O)c1cccc(I)c1C(=O)N(C)C [compound 1120] | A (100) | A (100) | A (100)
Cc1cc(C(F)(F)C(F)(F)F)ccc1N(C)C(=O)c1cccc(I)c1C(=O)N(C)C(C)C [compound 1121] | A (100) | A (100) | A (100)
CC(C)(C)NC(=O)c1c(I)cccc1C(=O)Nc1ccc(SC(F)(F)F)cc1 [compound 1127] | A (100) | A (100) | A (100)
CCN(CC)C(=O)c1c(I)cccc1C(=O)Nc1ccc(SC(F)(F)F)cc1 [compound 1128] | A (100) | A (100) | A (100)
CCN(CC)C(=O)c1c(I)cccc1C(=O)Nc1ccc2c(c1)OC(F)(F)O2 [compound 1129] | A (100) | A (100) | A (100)
CCN(CC)C(=O)c1c(I)cccc1C(=O)Nc1ccc(C(O)(C(F)(F)F)C(F)(F)F)cc1 [compound 1130] | A (100) | A (100) | A (100)
Cc1cc(C(F)(F)F)ccc1NC(=O)c1cccc(I)c1C(=O)NC(C)(C)C [compound 1141] | A (100) | A (100) | A (100)
CC(C)NC(=O)c1c(I)cccc1C(=O)Nc1ccc2oc(C(F)(F)C(F)(F)F)nc2c1 [compound 1142] | A (100) | A (100) | A (100)
CC(C)(C)NC(=O)c1c(I)cccc1C(=O)Nc1ccc2oc(C(F)(F)C(F)(F)F)nc2c1 [compound 1143] | C (89-80) | A (100) | A (100)
